Where a name gives a salt, the structure may show the parent alone. Read-outs that look alike come from different tables or passages of the source. Where only a bound is given, the exact number is not on record here.

Common to all, as to assay type: biochemical
In one experiment the target is T1, α-Glucosidase (Rice) (Oryza sativa subsp. japonica, UniProt Q653V7).
T1 construct: purchased Sigma-Aldrich Chemical Co
Nature of the experiment: α-Glucosidase (rice) inhibition. On the procedure:
(§1) With rat intestinal maltase as an exception, other enzymes were purchased from Sigma-Aldrich Chemical Co. (St. Louis, MO, USA). Brush border membranes prepared from rat small intestine according to the method of Kessler et al. were assayed at pH 6.8 for rat intestinal maltase using maltose. The released D-glucose was determined colorimetrically using the Glucose CII-test Wako (Wako Pure Chemical Ind.; Osaka, Japan). Other glycosidase activities were determined using an appropriate p-nitrophenyl glycoside as substrate in a buffer solution at the optimal pH value of each enzyme. The reaction was stopped by adding 400 mM Na2CO3. The released p-nitrophenol was measured spectrometrically at 400 nm.

The target of the next experiment is Rat intestinal maltase. Nature of the experiment: Rat intestinal maltase inhibition. The settings on record: α-Glucosidase. The procedure:
as §1

Another experiment concerns the target β-Glucosidase (Almond). Kind of experiment: β-Glucosidase (almond) inhibition. The procedure:
as §1

Experiment [1] has as its target β-Glucosidase (Bovine liver). Kind of experiment: β-Glucosidase (bovine liver) inhibition. On the procedure:
as §1

The target in experiment [2] is T2, β-Galactosidase (Bovine liver) (Bos taurus, UniProt F1MNT6).
T2 sequence (F1MNT6 1-469): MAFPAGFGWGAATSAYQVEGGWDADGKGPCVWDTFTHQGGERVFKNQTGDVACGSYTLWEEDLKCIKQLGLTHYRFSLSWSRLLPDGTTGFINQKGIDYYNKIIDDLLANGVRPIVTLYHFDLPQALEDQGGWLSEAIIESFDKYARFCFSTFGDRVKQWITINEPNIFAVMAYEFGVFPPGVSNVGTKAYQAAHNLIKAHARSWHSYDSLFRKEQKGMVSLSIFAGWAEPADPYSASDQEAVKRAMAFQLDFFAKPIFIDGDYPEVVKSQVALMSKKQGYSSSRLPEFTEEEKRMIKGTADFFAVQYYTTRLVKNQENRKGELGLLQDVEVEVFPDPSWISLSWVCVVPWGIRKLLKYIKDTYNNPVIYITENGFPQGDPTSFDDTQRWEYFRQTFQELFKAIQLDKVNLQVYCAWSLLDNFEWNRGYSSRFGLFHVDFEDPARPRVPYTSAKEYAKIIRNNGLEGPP
Nature of the experiment: β-Galactosidase (bovine liver) inhibition. On the procedure: as §1

Experiment [3] has as its target T3, α-Mannosidase (Jack bean) (Canavalia ensiformis, UniProt C0HJB3).
T3 construct: purchased Sigma-Aldrich Chemical Co
T3 sequence (C0HJB3 1-981): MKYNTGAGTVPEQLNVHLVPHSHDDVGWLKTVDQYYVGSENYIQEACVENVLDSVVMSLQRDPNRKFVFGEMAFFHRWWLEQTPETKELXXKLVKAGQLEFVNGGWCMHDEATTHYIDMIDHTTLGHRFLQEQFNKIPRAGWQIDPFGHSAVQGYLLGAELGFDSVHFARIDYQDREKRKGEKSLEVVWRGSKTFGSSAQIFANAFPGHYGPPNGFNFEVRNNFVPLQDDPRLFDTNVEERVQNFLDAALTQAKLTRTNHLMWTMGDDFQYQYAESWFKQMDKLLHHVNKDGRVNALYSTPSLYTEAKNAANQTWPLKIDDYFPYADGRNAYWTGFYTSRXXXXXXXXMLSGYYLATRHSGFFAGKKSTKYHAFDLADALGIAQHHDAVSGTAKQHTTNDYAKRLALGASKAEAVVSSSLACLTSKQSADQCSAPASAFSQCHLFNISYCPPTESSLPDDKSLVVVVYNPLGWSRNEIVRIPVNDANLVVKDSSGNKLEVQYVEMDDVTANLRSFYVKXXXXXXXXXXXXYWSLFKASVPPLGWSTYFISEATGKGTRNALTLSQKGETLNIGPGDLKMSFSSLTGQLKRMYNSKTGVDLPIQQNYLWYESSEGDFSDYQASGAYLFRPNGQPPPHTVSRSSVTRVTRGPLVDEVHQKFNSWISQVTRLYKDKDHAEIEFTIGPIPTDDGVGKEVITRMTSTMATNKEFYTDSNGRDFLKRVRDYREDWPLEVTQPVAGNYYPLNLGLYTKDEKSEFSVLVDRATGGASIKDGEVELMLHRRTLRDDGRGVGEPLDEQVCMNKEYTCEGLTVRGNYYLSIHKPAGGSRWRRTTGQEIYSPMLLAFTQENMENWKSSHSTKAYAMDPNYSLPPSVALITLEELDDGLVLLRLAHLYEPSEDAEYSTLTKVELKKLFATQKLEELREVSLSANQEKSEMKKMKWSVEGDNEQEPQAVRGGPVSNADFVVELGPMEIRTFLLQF
Nature of the experiment: α-Mannosidase (Jack bean) inhibition. On the procedure: as §1

For experiment [4], the target named is T4, α,α-Trehalase (Porcine kidney) (Sus scrofa, UniProt I3LIR5).
T4 construct: purchased Sigma-Aldrich Chemical Co; host or cells: porcine kidney
T4 sequence (I3LIR5 24-583): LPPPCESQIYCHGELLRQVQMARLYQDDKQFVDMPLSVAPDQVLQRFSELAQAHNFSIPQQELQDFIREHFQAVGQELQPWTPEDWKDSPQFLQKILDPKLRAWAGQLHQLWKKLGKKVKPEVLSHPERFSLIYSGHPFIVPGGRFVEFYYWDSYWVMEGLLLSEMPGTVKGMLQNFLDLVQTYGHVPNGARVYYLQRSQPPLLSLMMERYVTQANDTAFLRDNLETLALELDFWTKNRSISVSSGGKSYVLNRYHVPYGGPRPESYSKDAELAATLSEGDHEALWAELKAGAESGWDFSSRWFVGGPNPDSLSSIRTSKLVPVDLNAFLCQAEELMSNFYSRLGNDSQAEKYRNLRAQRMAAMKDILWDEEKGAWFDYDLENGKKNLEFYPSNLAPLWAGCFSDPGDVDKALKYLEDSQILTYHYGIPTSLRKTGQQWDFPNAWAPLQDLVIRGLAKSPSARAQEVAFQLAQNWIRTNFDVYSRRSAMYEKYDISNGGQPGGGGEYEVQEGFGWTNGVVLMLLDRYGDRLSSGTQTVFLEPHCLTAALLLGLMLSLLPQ
Nature of the experiment: α,α-Trehalase (porcine kidney) inhibition. The procedure: as §1

Experiment [5] has as its target T5, Amyloglucosidase (A. niger) (Aspergillus niger, UniProt P69328).
T5 construct: purchased Sigma-Aldrich Chemical Co
Kind of experiment: Amyloglucosidase (A. niger) inhibition. The procedure: as §1

The target in experiment [6] is α-L-Rhamnosidase (P. decumbens). Nature of the experiment: α-L-Rhamnosidase (P. decumbens) inhibition. On the procedure: as §1
The target of experiment [7] is β-N-Acetylhexosaminidase (HL60). Nature of the experiment: β-N-Acetylhexosaminidase (HL60) inhibition. The settings on record: for IC50: β-N-Acetylhexosaminidase (β-GlcNAcase); for Inhibition % at 1000 μM: β-N-Acetylhexosaminidase. On the procedure: as §1
Experiment [8] has as its target β-N-Acetylgalactosaminidase (HL60). Nature of the experiment: β-N-Acetylgalactosaminidase (HL60) inhibition. The procedure:
as §1

Setting [9] is: 1000 μM, read-out: Inhibition % at 1000 μM.

T5 sequence (P69328 25-640): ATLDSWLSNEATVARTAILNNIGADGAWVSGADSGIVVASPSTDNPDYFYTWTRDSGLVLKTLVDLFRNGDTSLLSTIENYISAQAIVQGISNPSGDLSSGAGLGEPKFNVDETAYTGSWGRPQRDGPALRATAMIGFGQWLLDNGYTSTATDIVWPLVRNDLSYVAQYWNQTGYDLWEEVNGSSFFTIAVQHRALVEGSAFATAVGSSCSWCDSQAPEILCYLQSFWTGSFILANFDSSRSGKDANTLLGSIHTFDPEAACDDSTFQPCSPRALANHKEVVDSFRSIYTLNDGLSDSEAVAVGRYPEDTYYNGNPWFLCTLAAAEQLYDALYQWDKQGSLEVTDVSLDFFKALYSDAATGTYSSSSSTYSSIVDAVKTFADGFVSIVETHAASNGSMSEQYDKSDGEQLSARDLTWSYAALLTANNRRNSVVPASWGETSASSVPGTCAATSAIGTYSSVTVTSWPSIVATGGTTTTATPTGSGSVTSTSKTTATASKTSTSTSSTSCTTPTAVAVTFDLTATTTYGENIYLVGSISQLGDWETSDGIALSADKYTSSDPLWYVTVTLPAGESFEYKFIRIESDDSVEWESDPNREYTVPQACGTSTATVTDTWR
T1 sequence (Q653V7 34-885): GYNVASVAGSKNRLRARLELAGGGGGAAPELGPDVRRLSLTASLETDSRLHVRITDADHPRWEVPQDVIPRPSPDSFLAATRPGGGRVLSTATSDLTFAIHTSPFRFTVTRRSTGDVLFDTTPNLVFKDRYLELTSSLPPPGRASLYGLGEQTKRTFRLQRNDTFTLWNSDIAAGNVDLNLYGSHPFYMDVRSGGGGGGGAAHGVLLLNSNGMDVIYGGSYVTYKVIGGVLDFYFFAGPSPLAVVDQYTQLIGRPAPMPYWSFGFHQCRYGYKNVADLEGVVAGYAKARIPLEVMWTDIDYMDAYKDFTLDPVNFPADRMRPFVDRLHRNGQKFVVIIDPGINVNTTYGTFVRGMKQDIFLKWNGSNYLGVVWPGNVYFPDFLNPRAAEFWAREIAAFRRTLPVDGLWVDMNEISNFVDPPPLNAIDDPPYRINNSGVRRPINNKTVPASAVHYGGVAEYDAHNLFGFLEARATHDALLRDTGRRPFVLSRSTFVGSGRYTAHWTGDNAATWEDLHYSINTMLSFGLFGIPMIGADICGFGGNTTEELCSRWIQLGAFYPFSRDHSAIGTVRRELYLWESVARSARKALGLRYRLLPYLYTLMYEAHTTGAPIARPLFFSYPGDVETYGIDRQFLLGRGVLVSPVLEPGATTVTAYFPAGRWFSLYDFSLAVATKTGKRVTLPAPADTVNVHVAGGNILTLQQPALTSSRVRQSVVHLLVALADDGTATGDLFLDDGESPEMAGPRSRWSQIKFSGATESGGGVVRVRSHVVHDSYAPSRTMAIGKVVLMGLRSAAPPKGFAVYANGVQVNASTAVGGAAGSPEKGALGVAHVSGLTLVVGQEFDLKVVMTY

In the case of `CC(=O)NC[C@H]1N[C@@H](CO)[C@@H](O)[C@@H]1O` [E-10a, 1-N-acetylamino-2,5-imino-1,2,5-trideoxy-D-glucitol hydrochloride], the inhibition at 1000 µM at α-Glucosidase (Rice) (setting [9]) is 15.9%; at α-Glucosidase (Rice) (read-out: IC50), less than 50%; in experiment [2] (setting [9]), 4.9%; in experiment [2] (read-out: IC50) it was less than 50%; in [3] (setting [9]) it was 0.7%; in [3] (read-out: IC50), less than 50%. Further, the inhibition at 1000 µM was 5.6% in [4] (setting [9]), less than 50% in [4] (read-out: IC50), 4% in experiment [5] (setting [9]) and less than 50% in [5] (read-out: IC50). Besides, the IC50 (commonly the concentration at which inhibition is half-maximal) against Rat intestinal maltase was “NI (No Inhibition (less than 50% at 1000 μM))”; on β-Glucosidase (Almond), “NI (No Inhibition (less than 50% at 1000 μM))”; in experiment [1], “NI (No Inhibition (less than 50% at 1000 μM))”; in [6], “NI (No Inhibition (less than 50% at 1000 μM))”; in experiment [7] (read-out: IC50), 591 µM; in experiment [8] (read-out: IC50) it was 490 µM. Also, the “Inhibition % at 1000 μM” value is 12.7% with Rat intestinal maltase, 37.9% in the experiment with β-Glucosidase (Almond), 4.1% in experiment [1] and 11.8% in [6].

`CC(=O)NC[C@@H]1N[C@@H](CO)[C@@H](O)[C@@H]1O` [E-10b, 1-N-acetylamino-2,5-imino-1,2,5-trideoxy-L-iditol hydrochloride]: the inhibition at 1000 µM at α-Glucosidase (Rice) (setting [9]) is 0%; at α-Glucosidase (Rice) (read-out: IC50), less than 50%; in experiment [2] (setting [9]), 3.9%; in [2] (read-out: IC50), less than 50%; in [3] (setting [9]), 3.8%; in experiment [3] (read-out: IC50), less than 50%. For the same compound, the inhibition at 1000 µM was 0% in experiment [4] (setting [9]), less than 50% in experiment [4] (read-out: IC50), 6.4% in experiment [5] (setting [9]) and less than 50% in experiment [5] (read-out: IC50). Also, the IC50 entry (against Rat intestinal maltase; against β-Glucosidase (Almond); in experiment [1]; in experiment [6]; in [7]; in experiment [8]) was “NI (No Inhibition (less than 50% at 1000 μM))” throughout. The “Inhibition % at 1000 μM” value in the experiment with Rat intestinal maltase came out at 0%; in the experiment on β-Glucosidase (Almond), 1.2%; in [1] it was 0%; in [6] it was 30.8%; in experiment [7] it was 4.5%; in [8] it was 10.1%.

Take `CC(=O)NC[C@@H]1N[C@H](CO)[C@H](O)[C@H]1O` [F-10a, 1-N-acetylamino-2,5-imino-1,2,5-trideoxy-L-glucitol hydrochloride]: the inhibition at 1000 µM on α-Glucosidase (Rice) (setting [9]) was 12.5%; on α-Glucosidase (Rice) (read-out: IC50), less than 50%; in experiment [2] (setting [9]), 4.2%; in experiment [2] (read-out: IC50), less than 50%; in experiment [3] (setting [9]) it was 0%; in experiment [3] (read-out: IC50), less than 50%. Besides, the inhibition at 1000 µM in [4] (setting [9]) was 3%; in experiment [4] (read-out: IC50), less than 50%; in [5] (setting [9]), 2.8%; in experiment [5] (read-out: IC50), less than 50%. Also, the concentration for half-maximal inhibition (IC50) result (against Rat intestinal maltase; against β-Glucosidase (Almond); in experiment [1]; in [6]; in experiment [7]; in experiment [8]) was “NI (No Inhibition (less than 50% at 1000 μM))” throughout. Further, the “Inhibition % at 1000 μM” value is reported as 14.6% in the experiment on Rat intestinal maltase; 11.6% in the experiment with β-Glucosidase (Almond); 0.3% in experiment [1]; 5.3% in experiment [6]; 0% in [7]; 0.9% in [8].

`CC(=O)NC[C@H]1N[C@H](CO)[C@@H](O)[C@@H]1O` [4·HCl, 1-N-acetylamino-2,5-imino-1,2,5-trideoxy-D-mannitol hydrochloride]: the IC50 is 1000 µM at α-Glucosidase (Rice); 211 µM at Rat intestinal maltase (read-out: IC50); 170 µM on β-Glucosidase (Almond) (read-out: IC50); “NI (No Inhibition (less than 50% at 1000 μM))” in experiment [1]; “NI (No Inhibition (less than 50% at 1000 μM))” in experiment [6]; 34 µM in experiment [7] (read-out: IC50). Further, the half-maximal inhibitory concentration (IC50) in experiment [8] (read-out: IC50) turned out to be 9.5 µM. In addition, the “Inhibition % at 1000 μM” value in experiment [1] worked out at 33.8%; in experiment [6], 6.5%. Further, the inhibition at 1000 µM was 0% in experiment [3] (setting [9]); less than 50% in experiment [3] (read-out: IC50); 20.3% in experiment [4] (setting [9]); less than 50% in experiment [4] (read-out: IC50); 40.6% in experiment [5] (setting [9]); less than 50% in experiment [5] (read-out: IC50).

Values taken from PMC7180638, “Synthesis of Pyrrolidine Monocyclic Analogues of Pochonicine and Its Stereoisomers: Pursuit of Simplified Structures and Potent β-N-Acetylhexosaminidase Inhibition” (Molecules, 2020).
